Results on three compounds are retold here after ChEMBL document CHEMBL1800060, “Enhancement of transcriptional activity of mutant p53 tumor suppressor protein through stabilization of tetramer formation by calix[6]arene derivatives” (Bioorg Med Chem Lett, 2010).

Experiment [1] has as its system Cellular tumor antigen p53 (Homo sapiens), P04637 [R337H]. Put plainly: Thermal stabilization of p53 tetramerization domain-Arg337His mutant peptide assessed as change in transition temperature at 40 uM by CD spectroscopy.
For experiment [2] the test system is unchanged. Put plainly: Thermal stabilization of p53 tetramerization domain-Arg337His mutant peptide assessed as change in transition temperature at 10 uM by CD spectroscopy.
The test system is the same in experiment [3]. Put plainly: Enhancement of transcriptional activity of EGFP tagged p53 tetramerization domain-Arg337His mutant peptide in NCI-H1299 cells transfected with p53RE-mCherry(NLS) reporter plasmid assessed as increase in fluorescence signal at 20 uM after 11 hrs by fluorescence assay. Type of experiment: cell-based.
Experiment [4] has the same test system. The experiment in a line: Enhancement of transcriptional activity of EGFP tagged p53 tetramerization domain-Arg337His mutant peptide in NCI-H1299 cells transfected with p53RE-mCherry(NLS) reporter plasmid assessed as increase in fluorescence signal at 20 uM after 11 hrs by fluorescence assay relative to untreated control. Type of experiment: cell-based.
Experiment [5] concerns the target Cellular tumor antigen p53 (Homo sapiens) (UniProt P04637). The experiment in a line: Enhancement of transcriptional activity of wild type p53 in NCI-H1299 cells transfectedp53RE-mCherry(NLS) reporter plasmid assessed as increase in fluorescence signal at 20 uM after 11 hrs by fluorescence assay. In kind it is cell-based.
The subject of experiment [6] is Cellular tumor antigen p53 (Homo sapiens), P04637 [R273H]. The experiment in a line: Enhancement of transcriptional activity of p53 DNA binding domain Arg273His mutant in NCI-H1299 cells transfected p53RE-mCherry(NLS) reporter plasmid assessed as increase in fluorescence signal at 20 uM after 11 hrs by fluorescence assay. Type of experiment: cell-based.

Activity calls are given as the source filed them. The rule behind the calls is not given here.

Regarding `N=C(N)NCc1cc2c3c(c1)Cc1cc(CNC(=N)N)cc4c1OCCOCCOc1c(cc(CNC(=N)N)cc1Cc1cc(CNC(=N)N)cc(c1OCCOCCO3)C2)C4`, the values for the deltaT in experiment [1] and in experiment [2] were -0.3 °C and 0.3 °C, respectively. For the same compound, the result in experiment [3] was inactive.
On to `COc1c2cc(Cn3cccn3)cc1Cc1cc(Cn3cccn3)cc(c1OC)Cc1cc(Cn3cccn3)cc(c1OC)Cc1cc(Cn3cccn3)cc(c1OC)Cc1cc(Cn3cccn3)cc(c1OC)Cc1cc(Cn3cccn3)cc(c1OC)C2`, for which the deltaT in experiment [2] was found to be 0 °C.
Take `COc1c2cc(Cn3ccnc3)cc1Cc1cc(Cn3ccnc3)cc(c1OC)Cc1cc(Cn3ccnc3)cc(c1OC)Cc1cc(Cn3ccnc3)cc(c1OC)Cc1cc(Cn3ccnc3)cc(c1OC)Cc1cc(Cn3ccnc3)cc(c1OC)C2`: the deltaT in experiment [1] was 4.1 °C; in experiment [2] it was 2.3 °C. Further, the Activity in experiment [4] was 130%. Further, the result in experiment [5] and in experiment [3] was Active. The result in experiment [6] was inactive.
